From patent publication US12319655B2, “RAF kinase inhibitors and methods of use thereof” (Deciphera Pharmaceuticals, LLC, priority 2021, dated 2025)

Key:
A375 cells = experiment: A375 Cell Proliferation Assay (1); assay type: cell-based; settings: Homo sapiens, A-375
How it was run: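 Resazurin fluorescence (excitation 540 nm, emission 600 nm, after a further 5-6 h) gave IC50s from triplicate compound dilution series.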

[1] = target: B-Raf kinase (SEQ. ID NO: 2) (Homo sapiens (Human), UniProt P15056); experiment: Biochemical Assay for B-Raf (1); settings: Table J, assay version (1); read-out: BRAF (1) IC50
Sequence of B-Raf kinase (SEQ. ID NO: 2) (P15056 416-766): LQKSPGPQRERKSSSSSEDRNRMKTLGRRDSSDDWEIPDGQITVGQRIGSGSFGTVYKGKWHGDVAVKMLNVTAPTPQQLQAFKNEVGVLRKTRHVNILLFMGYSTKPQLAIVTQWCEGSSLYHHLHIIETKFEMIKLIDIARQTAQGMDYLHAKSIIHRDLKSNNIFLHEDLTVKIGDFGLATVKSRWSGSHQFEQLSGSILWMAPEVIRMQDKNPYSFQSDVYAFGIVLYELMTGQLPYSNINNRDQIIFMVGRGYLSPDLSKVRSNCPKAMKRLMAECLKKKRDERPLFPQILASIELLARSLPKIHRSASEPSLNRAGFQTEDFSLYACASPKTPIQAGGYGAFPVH
How it was run: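 IC50 derived by four-parameter sigmoidal fit of percent inhibition, normalised to uninhibited and reference-inhibitor controls, using reaction rates over 4–5 h. Coupled spectrophotometric readout (NADH loss at 340 nm, 6 h, 30° C.); 1 mM ATP, 30.1 nM MEK, 0.13 nM B-Raf, pH 7.5 Tris buffer, 1% DMSO.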

[2] = target: C-Raf kinase (SEQ. ID NO: 3) (Homo sapiens (Human), UniProt P04049, Y340D/Y341D); experiment: Biochemical Assay for C-Raf (1); settings: Table J, assay version (1); read-out: CRAF (1) IC50
Sequence of C-Raf kinase (SEQ. ID NO: 3) (P04049 307-648 Y340D/Y341D): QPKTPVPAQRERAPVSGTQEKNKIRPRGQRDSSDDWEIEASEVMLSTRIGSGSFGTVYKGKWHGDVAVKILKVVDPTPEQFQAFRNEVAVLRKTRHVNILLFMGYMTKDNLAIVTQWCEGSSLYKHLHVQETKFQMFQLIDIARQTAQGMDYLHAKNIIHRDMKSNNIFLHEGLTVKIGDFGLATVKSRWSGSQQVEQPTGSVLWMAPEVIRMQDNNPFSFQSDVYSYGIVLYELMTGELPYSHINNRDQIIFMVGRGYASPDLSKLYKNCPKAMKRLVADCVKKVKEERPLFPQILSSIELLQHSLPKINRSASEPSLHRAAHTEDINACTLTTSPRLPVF
How it was run: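 IC50 values come from a four-parameter fit of percent inhibition, using the reaction rate over 4–5 h of a 6 h continuous 340 nm read at 30 °C. The enzyme mix was C-Raf 0.43 nM, MEK substrate 30.1 nM and ATP 1 mM, in a PK/LDH NADH-coupled format in Tris pH 7.5 with 1% DMSO.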

WM3928 cells = experiment: WM3928 Cell Proliferation Assay (1); assay type: cell-based
How it was run: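 IC50 was derived from resazurin fluorescence (ex 540, em 600 nm) after a 6–7 h dye incubation. Before that, cells had 67–72 h of compound exposure at 37 °C, 5% CO2.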

IC50 (A375 cells) [µM] | IC50 [1] [µM] | IC50 [2] [µM] | SMILES | IC50 (WM3928 cells) [µM]
≤ 0.1 | 0.1 to 0.5 | ≤ 0.1 | Cc1ncc(NC(=O)c2ccnc(C(C)(C)C#N)c2)cc1-c1cc(-c2cc(NC(=O)C3CC3)ncn2)cc(C2CC2)c1 [Example 218] | ≤ 0.1
0.1 to 0.5 | 0.1 to 0.5 | 0.1 to 0.5 | Cc1ncc(NC(=O)c2ccnc(C(C)(C)C#N)c2)cc1-c1ccnc(-c2ccnc(NC(=O)C(C)(C)C#N)c2)c1 [Example 219] | 0.1 to 0.5
1 to 10 | 0.1 to 0.5 | 0.1 to 0.5 | Cc1ccc(NC(=O)c2ccnc(C3(C#N)CC3)c2)cc1-c1cccc(-c2cc(NC(=O)C3CC3)ncn2)n1 [Example 220] | 1 to 10
1 to 10 | ≤ 0.1 | ≤ 0.1 | COCCNc1cc(-c2nccc(-c3cc(NC(=O)c4ccnc(C(C)(C)C#N)c4)ccc3C)n2)ccn1 [Example 221] | 0.5 to 1
≤ 0.1 | ≤ 0.1 | ≤ 0.1 | Cc1ncc(NC(=O)c2ccnc(C(C)(C)C#N)c2)cc1-c1cccc(-c2ccnc(NC(=O)C3CC3)c2)c1 [Example 222] | ≤ 0.1
≤ 0.1 | ≤ 0.1 | ≤ 0.1 | Cc1ccc(NC(=O)c2ccnc(C(C)(C)C#N)c2)cc1-c1cccc(-c2ccnc(NC(=O)C3CC3)c2)c1 [Example 223] | ≤ 0.1
≤ 0.1 | ≤ 0.1 | ≤ 0.1 | Cc1ccc(NC(=O)c2ccnc(C(C)(C)C#N)c2)cc1-c1cncc(-c2cc(NC(=O)C3CC3)ncn2)c1 [Example 224] | ≤ 0.1
≤ 0.1 | ≤ 0.1 | ≤ 0.1 | COC(=O)Nc1cc(-c2cccc(-c3cc(NC(=O)c4ccnc(C(C)(C)C#N)c4)cnc3C)c2)ncn1 [Example 225] | ≤ 0.1
1 to 10 | 1 to 10 | 0.5 to 1 | Cc1ncc(NC(=O)c2ccnc(C(C)(C)C#N)c2)cc1-c1cccc(-c2cc(NC(=O)C3CC3)ncn2)n1 [Example 226] | 1 to 10
0.1 to 0.5 | ≤ 0.1 | ≤ 0.1 | Cc1ccc(NC(=O)c2ccnc(C3CC3)c2)cc1-c1ccnc(-c2ccnc(NC(=O)C3CC3)c2)n1 [Example 229] | ≤ 0.1
≤ 0.1 | ≤ 0.1 | ≤ 0.1 | Cc1ccc(NC(=O)c2ccnc(C(C)(C)C#N)c2)cc1-c1cnnc(-c2ccnc(NC(=O)C3CC3)c2)c1 [Example 230] | ≤ 0.1
≤ 0.1 | ≤ 0.1 | ≤ 0.1 | CNC(=O)c1cc(-c2cc(-c3cc(NC(=O)c4cccc(C(C)(C)C#N)c4)ccc3C)cc(OCCO)n2)ccn1 [Example 231] | ≤ 0.1
0.5 to 1 | 0.1 to 0.5 | ≤ 0.1 | Cc1ccc(NC(=O)c2ccnc(C(C)(C)C#N)c2)cc1-c1cccc(-c2cc(NC(=O)C3CC3)ncn2)n1 [Example 233] | 1 to 10
≤ 0.1 | 0.1 to 0.5 | ≤ 0.1 | CNC(=O)c1cc(-c2cncc(-c3cc(NC(=O)c4ccnc(C(C)(C)C#N)c4)ccc3C)c2)ncn1 [Example 235] | ≤ 0.1
≤ 0.1 | ≤ 0.1 | ≤ 0.1 | Cc1ccc(NC(=O)c2ccnc(C(C)(C)C#N)c2)cc1-c1ccnc(-c2ccnc(NC(=O)C3(C#N)CC3)c2)n1 [Example 241] | ≤ 0.1
0.5 to 1 | 0.1 to 0.5 | 0.1 to 0.5 | CNC(=O)c1cc(-c2ccnc(-c3cc(NC(=O)c4ccnc(C(C)(C)C#N)c4)c(F)cc3C)n2)ccn1 [Example 242] | 0.1 to 0.5
≤ 0.1 | ≤ 0.1 | ≤ 0.1 | Cc1ccc(NC(=O)c2ccnc(C(C)(C)C#N)c2)cc1-c1cc(-c2ccnc(NC(=O)C3CC3)c2)cnn1 [Example 245] | ≤ 0.1
≤ 0.1 | ≤ 0.1 | ≤ 0.1 | Cc1ncc(NC(=O)c2ccnc(C(C)(C)F)c2)cc1-c1cccc(-c2cc(NC(=O)C3CC3)ncn2)c1 [Example 249] | ≤ 0.1
0.1 to 0.5 | ≤ 0.1 | ≤ 0.1 | Cc1ccc(NC(=O)c2cnnc(C3CC3)c2)cc1-c1ccnc(-c2ccnc(NC(=O)C3CC3)c2)n1 [Example 250] | 0.1 to 0.5

IC50 (A375 cells) [µM] | IC50 [1] [µM] | IC50 [2] [µM] | SMILES | IC50 (WM3928 cells) [µM]
≤ 0.1 | ≤ 0.1 | ≤ 0.1 | Cc1ncc(NC(=O)c2ccnc(C(C)(C)C#N)c2)cc1-c1ccnc(-c2ccnc(NC(=O)C3CC3)c2)c1 [Example 251] | ≤ 0.1
1 to 10 | ≤ 0.1 | ≤ 0.1 | Cc1cc(F)c(NC(=O)c2cnnc(C3CC3)c2)cc1-c1nccc(-c2ccnc(NC(=O)C3CC3)c2)n1 [Example 252] | 0.5 to 1
0.1 to 0.5 | ≤ 0.1 | ≤ 0.1 | Cc1ncc(NC(=O)c2ccnc(C3CC3)c2)cc1-c1ccnc(-c2ccnc(NC(=O)C3CC3)c2)c1 [Example 253] | ≤ 0.1
1 to 10 | ≤ 0.1 | ≤ 0.1 | Cc1ncc(NC(=O)c2cnnc(C3CC3)c2)cc1-c1ccnc(-c2ccnc(NC(=O)C3CC3)c2)c1 [Example 254] | 1 to 10
≤ 0.1 | ≤ 0.1 | ≤ 0.1 | Cc1ccc(NC(=O)c2ccnc(C3CC3)c2)cc1-c1cccc(-c2cc(NC(=O)C3CC3)ncn2)c1 [Example 255] | ≤ 0.1
0.5 to 1 | ≤ 0.1 | ≤ 0.1 | Cc1ncc(NC(=O)c2ccnc(C3CC3)c2)cc1-c1cnc(C)c(-c2ccnc(NC(=O)C3CC3)c2)c1 [Example 256] | 0.5 to 1
≤ 0.1 | ≤ 0.1 | ≤ 0.1 | Cc1ccc(NC(=O)c2ccnc(C(C)(C)C#N)c2)cc1-c1ccnc(-c2ccnc(NC(=O)C3CC3)c2)n1 [Example 257] | ≤ 0.1
≤ 0.1 | ≤ 0.1 | ≤ 0.1 | Cc1cc(F)c(NC(=O)c2ccnc(C3(C#N)CC3)c2)cc1-c1ccnc(-c2ccnc(NC(=O)C3CC3)c2)n1 [Example 262] | ≤ 0.1
1 to 10 | ≤ 0.1 | ≤ 0.1 | Cc1cc(F)c(NC(=O)c2cnnc(C3CC3)c2)cc1-c1ccnc(-c2ccnc(NC(=O)C3CC3)c2)n1 [Example 263] | 0.5 to 1
≤ 0.1 | 0.1 to 0.5 | ≤ 0.1 | CNC(=O)c1cc(-c2cc(-c3cc(NC(=O)c4ccnc(C(C)(C)OC)c4)ccc3C)ccn2)ccn1 [Example 264] | ≤ 0.1
≤ 0.1 | ≤ 0.1 | ≤ 0.1 | CNC(=O)c1cc(-c2cc(-c3cc(NC(=O)c4ccnc(C5(C#N)CC5)c4)ccc3C)ccn2)ccn1 [Example 265] | ≤ 0.1
0.1 to 0.5 | ≤ 0.1 | ≤ 0.1 | Cc1ccc(NC(=O)c2ccnc(C(C)(C)C#N)c2)cc1-c1cccc(-c2cc(N)ncn2)c1 [Example 267] | 0.1 to 0.5
0.1 to 0.5 | ≤ 0.1 | ≤ 0.1 | Cc1ncc(NC(=O)c2ccnc(C3CC3)c2)cc1-c1cccc(-c2ccnc(NC(=O)C3CC3)c2)n1 [Example 270] | 0.1 to 0.5
0.5 to 1 | ≤ 0.1 | ≤ 0.1 | Cc1cc(F)c(NC(=O)c2ccnc(C(F)(F)F)c2)cc1-c1cncc(-c2ccnc(NC(=O)C3CC3)c2)n1 [Example 271] | ≤ 0.1
1 to 10 | 0.1 to 0.5 | ≤ 0.1 | Cc1cc(C(=O)Nc2cnc(C)c(-c3ccnc(-c4ccnc(NC(=O)C5CC5)c4)n3)c2)ccn1 [Example 273] | 1 to 10
≤ 0.1 | ≤ 0.1 | ≤ 0.1 | COC(C)(C)c1cc(C(=O)Nc2cnc(C)c(-c3cccc(-c4cc(NC(=O)C5CC5)ncn4)c3)c2)ccn1 [Example 274] | ≤ 0.1
0.5 to 1 | ≤ 0.1 | ≤ 0.1 | Cc1ncc(NC(=O)c2ccnc(C3CC3)c2)cc1-c1ccnc(-c2ccnc(NC(=O)C3CC3)c2)n1 [Example 277] | 0.1 to 0.5
1 to 10 | ≤ 0.1 | ≤ 0.1 | Cc1ncc(NC(=O)c2cnnc(C3CC3)c2)cc1-c1ccnc(-c2ccnc(NC(=O)C3CC3)c2)n1 [Example 278] | 1 to 10
0.1 to 0.5 | ≤ 0.1 | ≤ 0.1 | Cc1ncc(NC(=O)c2cnn(C(C)(C)C)c2)cc1-c1cccc(-c2cc(NC(=O)C3CC3)ncn2)c1 [Example 279] | ≤ 0.1
